The source of these data is patent US10919884B2, “Amide compounds for treatment of immune and inflammatory disorders” (Achillion Pharmaceuticals, Inc., priority 2015, dated 2021).

SMILES strings stand for the structures.

Chain of Human Factor D (P00746 26-253): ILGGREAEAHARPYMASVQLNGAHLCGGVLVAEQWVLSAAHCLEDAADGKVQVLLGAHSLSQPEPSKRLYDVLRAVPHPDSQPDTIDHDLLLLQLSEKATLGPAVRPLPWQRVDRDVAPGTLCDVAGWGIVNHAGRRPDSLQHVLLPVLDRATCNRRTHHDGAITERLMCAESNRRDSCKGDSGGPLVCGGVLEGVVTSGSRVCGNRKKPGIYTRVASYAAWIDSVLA

The test concerns the target Human Factor D (Homo sapiens (Human), UniProt P00746). Description: Human Factor D Assay. The settings on record: Human Factor D purified from human serum, 80 nM; substrate Z-L-Lys-SBzl and DTNB 100 μM each; assay of Example 12. In kind it is biochemical. Here is the method:
Example 12. Human Factor D Assay
Human Factor D (purified from human serum, Complement Technology, Inc.) at 80 nM final concentration is incubated with test compound at various concentrations for 5 minutes at room temperature in 50 mM Tris, 1 M NaCl, pH 7.5. A synthetic substrate Z-L-Lys-SBzl and DTNB (Ellman's reagent) are added to final concentrations of 100 μM each. Absorbance at 405 nm (A405) is recorded at 30 second intervals for 30 minutes using a microplate spectrophotometer. IC50 values are calculated by nonlinear regression of complement Factor D reaction rates as a function of test compound concentration.
The assay of Example 12 was used to determine the IC50's of the compounds. Other standard Factor D inhibition assays are also available.
In the case of `Cc1cccc(C[C@H](O)[C@@H]2C[C@@H](F)CN2C(=O)Cn2cc(C(N)=O)c3cc(NC(=O)N4CCCC(F)(F)C4)ccc32)n1` [Compound 3, 5-(3,3-difluoropiperidine-1-carboxamido)-1-(2-((2S,4R)-4-fluoro-2-((S)-1-hydroxy-2-(6-methylpyridin-2-yl)ethyl)pyrrolidin-1-yl)-2-oxoethyl)-1H-indole-3-carboxamide], the IC50 is more than 10 µM.
The compound `Cc1cccc(NC(=O)[C@@H]2CC=CCN2C(=O)Cn2cc(C(N)=O)c3cc(C(=O)NS(=O)(=O)C4CC4)ccc32)n1` [Compound 5, (S)-N5-(cyclopropylsulfonyl)-1-(2-(6-((6-methylpyridin-2-yl)carbamoyl)-5,6-dihydropyridin-1(2H)-yl)-2-oxoethyl)-1H-indole-3,5-dicarboxamide] returned an IC50 of more than 10 µM.
As for `Cc1cccc(NC(=O)[C@@H]2CC=CCN2C(=O)Cn2cc(C(N)=O)c3cc(NC(=O)N4CCCC(F)(F)C4)ccc32)n1` [Compound 1, (S)-5-(3,3-difluoropiperidine-1-carboxamido)-1-(2-(6-((6-methylpyridin-2-yl)carbamoyl)-5,6-dihydropyridin-1(2H)-yl)-2-oxoethyl)-1H-indole-3-carboxamide], the figure is more than 10 µM; as for `Cc1cccc(NC(=O)[C@@H]2CCC(F)CCN2C(=O)Cn2cc(C(N)=O)c3cc(NC(=O)N4CCCC(F)(F)C4)ccc32)n1` (stereo partly drawn) [Compound 4, 5-(3,3-difluoropiperidine-1-carboxamido)-1-(2-((2S)-5-fluoro-2-((6-methylpyridin-2-yl)carbamoyl)azepan-1-yl)-2-oxoethyl)-1H-indole-3-carboxamide], more than 10 µM; as for `Cc1cccc(C[C@@H](O)[C@H]2C[C@@H](F)CN2C(=O)Cn2cc(C(N)=O)c3cc(NC(=O)N4CCCC(F)(F)C4)ccc32)n1` [Compound 2, 5-(3,3-difluoropiperidine-1-carboxamido)-1-(2-((2R,4R)-4-fluoro-2-((R)-1-hydroxy-2-(6-methylpyridin-2-yl)ethyl)pyrrolidin-1-yl)-2-oxoethyl)-1H-indole-3-carboxamide], more than 10 µM.

One may read the IC50 as the midpoint of a concentration-inhibition curve. A low value points to higher potency.
